{"source": "patent US8501911B2", "about": "“Methods of reducing inflammation and mucus hypersecretion” (Biomarck Pharmaceuticals, Ltd, priority 1999, dated 2013)", "key": {"[1]": {"test_system": "human bronchial epithelial cells", "test": "Basal (constitutive) mucin secretion by human bronchial epithelial cells", "type": "cell-based", "conditions": "peptide 100 μM, one hour incubation, no PMA or 8-Br-cGMP", "description": "Mucus secreted from the airway epithelial cells in vitro after stimulation by activators was assessed using an ELISA (antibody capture method) (E. Harlow, D. Lane. “Antibodies: A Laboratory Manual.” New York: Cold Spring Harbor Laboratory Press, 1988), wherein the collected mucus is bound directly to the ELISA plate. Mucus was detected using an antibody raised against monkey airway mucus (Lin et al. Am J Respir Cell Mol Biol 1:41, 1989).\nThe MANS peptide (100 μM) was also found to decrease constitutive (basal) mucus secretion by one hour incubation. Cells were treated as described above except that no PMA or 8-Br-cGMP was used. […] Results, designated as Results-M-1B, are presented as follows and show the inhibition of basal mucin secretion by human bronchial epithelial cells exposed to the MANS peptide (SEQ ID NO: 1) or a negative control peptide consisting of the same amino acids as the MANS peptide, but in random order (RNS peptide; random N-terminal sequence (SEQ ID NO: 26):\nThe effect of MA-PSD peptide (1, 10 and 100 μM) on basal mucin secretion was also measured. Cells as described above were incubated for one hour with the MA-PSD peptide (no PMA or 8-Br-cGMP)."}, "[2]": {"test_system": "LPS-induced lung inflammation", "type": "in vivo, mouse", "conditions": "for Hb / MPO / LDH / Total Protein: BAL fluid; for % Inhibition of MPO: mouse, in vivo; for % Inhibition of neutrophil migration: relative to PBS/LPS treatment", "description": "Thus, six to seven week old CD1 female mice weighing 15-20 grams were obtained from Charles River laboratories and housed in groups of 5 mice per cage. The animals received standard rodent diet and filtered water ad libitum. The animals were housed under NIH prescribed guidelines at standard temperature (64° to 79° F.) and relative humidity of 30 to 70%.\nFour treatment groups of mice, with 5 animals in each group, were treated either with PBS followed by PBS, with PBS followed by LPS, with (myristoylated) MANS peptide followed by LPS, or with peptide of SEQ ID NO: 15 (MA-GAQFSKTAAK) followed by LPS.\nIntranasal peptide instillation pre-treatment: A peptide of the invention to be evaluated in vivo for its ability to inhibit or reduce LPS-induced lung inflammation was dissolved in PBS at a concentration of 1 mM. Animals, anesthetized with 0.8% isofluorane by inhalation, were pretreated with 2×10 μl intranasal bolus of the peptide solution into one nostril 30 minutes prior to subsequent instillation with LPS.\nIntranasal LPS instillation: Lipopolysaccharide (LPS) Endotoxin (Escherichia coli Serotype 011:B4 derived endotoxin; Sigma, St Louis, Mo.; see Sigma product information sheet L4130 titled Lipopolysaccharides from Escherichia coli 011:B4) was dissolved into phosphate buffered saline (PBS) at 2,500 μg/mL. To expose animals to endotoxin, a 10 μL intranasal bolus of 2,500 μg/ml endotoxin solution was administered to animals which had been anesthetized with 0.8% isofluorane by inhalation. The 10 μL bolus was applied into one nostril. Animals were monitored for labored breathing, lethargy, and decreased water/food intake following the endotoxin instillations.\nBronchoalveolar Lavage (BAL): Six hours after the last instillation, the animals were anesthetized (90 mg/kg Nembutal) and sacrificed by exsanguination. The lung was serially lavaged 2 times with 1.0 mL aliquots of PBS. The collected BAL fluid was centrifuged to remove the cells for subsequent counting and differential analysis. Recovered lavage fluid was used for analysis of total protein, myeloperoxidase (MPO), LDH, and hemoglobin.\nAnalysis: Aliquots of the BAL fluid were used immediately to assay for the levels of LDH, total protein, or hemoglobin (Hb) using the COBAS Fara analyzer (COBAS FARA II automated analyzer; Roche Diagnostic Systems Inc., Montclair, N.J.). An aliquot of BAL fluid was frozen at −80° C. for subsequent quantitation of myeloperoxidase (MPO) with a mouse-specific ELISA assay (Cell Sciences, Inc., Canton, Mass.). BAL data were analyzed by standard techniques to examine differences between the control and treatment groups."}, "[3]": {"test_system": "ozone-induced neutrophil migration into the airways", "test": "Mouse model of ozone-induced COPD (BAL analysis)", "type": "in vivo", "conditions": "for % Neutrophils found in BAL fluid: intratracheal 1.0 mM peptide 30 min before ozone 2 hours (PBS + Ozone 21.4); for IFNγ in BAL fluid: peptide pretreatment then ozone (PBS + ozone approx. 18); for IL-6 in BAL fluid: peptide pretreatment then ozone (PBS + ozone approx. 197); for KC in BAL fluid: peptide pretreatment then ozone (PBS + ozone approx. 240); for % Inhibition of neutrophil migration into BAL fluid: relative to control group treated with PBS", "description": "Ten-week-old Balb/C female mice were obtained from Charles River laboratories and housed under NIH guidelines in groups of 5 per cage. The animals received standard rodent diet and filtered water ad libitum. Three treatment groups of mice, 5 animals in each group, were each anesthetized by intraperitoneal injection of Ketamine (100 mg/kg) and Xylazine (20 mg/kg) and then pretreated by intratracheal administration with […] of either PBS alone, or a solution of 1.0 mM MANS peptide in PBS, or a solution of a 1.0 mM of a MANS-fragment-peptide designated as SEQ ID NO: 15 (MA-GAQFSKTAAK) in PBS. After 30 minutes, the animals were then placed in the appropriate custom-made chamber for ozone or forced air exposures. The animals were exposed to ozone for 2 hours (at ozone concentrations of 1-10 ppm by a slightly modified method described by Haddad et al, 1995. (Haddad E-B, Salmon M, Sun J, Liu S, Das A, Adcock I, Barnes P J, and Chung K F, FEBS Letters, 363:285-288, 1995). The ozone was generated using an ozone generator apparatus model OL80F/B from OzoneLab, Burton, British Columbia, Canada. Ozone concentration was continuously monitored using a Teledyne Photometric O3 Analyzer (model 400E, Teledyne Instruments, City of Industry, Calif.). Two additional groups of mice, each without any pretreatment, were either exposed to ozone under the same conditions or exposed to forced air under conditions similar to the ozone treatment group but absent ozone. After exposure, the animals were sacrificed by exsanguination and the lungs were serially lavaged 2 times with 1.0 mL aliquots of PBS. The collected bronchoalveolar lavage (BAL) fluid was centrifuged to remove the cells for subsequent counting and differential analysis. Recovered lavage fluid was used for protein and additional analysis of IL-6, IFNγ, and KC (murine IL-8 analog) by ELISA assay (assay kits obtained from R&D Systems, Minneapolis, Minn.)."}}, "note": "Several values for one entry are separate records, joined by “and”; a condition that tells them apart may be missing. Equal entries are not always repeated. Where two headings read alike, the source gives them in different places. Residues, ends and D or L forms follow the SMILES beside them. *: point of attachment. Myristoyl = CCCCCCCCCCCCCC(=O)*", "data": [{"smiles": "CCCCCCCCCCCCCC(=O)NCC(=O)N[C@@H](C)C(=O)N[C@@H](CCC(N)=O)C(=O)N[C@@H](Cc1ccccc1)C(=O)N[C@@H](CO)C(=O)N[C@@H](CCCCN)C(=O)N[C@H](C(=O)N[C@@H](C)C(=O)N[C@@H](C)C(=O)N[C@@H](CCCCN)C(=O)NCC(=O)N[C@@H](CCC(=O)O)C(=O)N[C@@H](C)C(=O)N[C@@H](C)C(=O)N[C@@H](C)C(=O)N[C@@H](CCC(=O)O)C(=O)N[C@@H](CCCNC(=N)N)C(=O)N1CCC[C@H]1C(=O)NCC(=O)N[C@@H](CCC(=O)O)C(=O)N[C@@H](C)C(=O)N[C@@H](C)C(=O)N[C@H](C(=O)N[C@@H](C)C(=O)O)C(C)C)[C@@H](C)O", "note": "[MANS peptide] (Myristoyl-GAQFSKTAAKGEAAAERPGEAAVA-OH; C-terminus assumed)", "values": [{"measurement": "Basal mucin secretion level relative to control", "setting": "[1]", "value": 28, "unit": "%"}, {"measurement": "Total cells counted", "setting": "[2]; BAL 6 h after LPS, intranasal 2×10 μl of 1 mM peptide 30 min before LPS, Table 3 (PBS/LPS 264,200)", "value": "208,457"}, {"measurement": "Hb", "setting": "[2]; Table 3 (PBS/LPS 0.19)", "value": 0.05, "unit": "g/dL"}, {"measurement": "MPO", "setting": "[2]; Table 3 (PBS/LPS 28.98)", "value": 9.49, "unit": "ng/mL"}, {"measurement": "LDH", "setting": "[2]; Table 3 (PBS/LPS 60.40)", "value": 68.57, "unit": "units/L"}, {"measurement": "Total Protein", "setting": "[2]; Table 3 (PBS/LPS 272.40)", "value": 175.00, "unit": "µg/mL"}, {"measurement": "% Neutrophils of total cells", "setting": "[2]; Table 3 (PBS/LPS 41.7)", "value": 30.9, "unit": "%"}, {"measurement": "Total neutrophils counted", "setting": "[2]; Table 3 (PBS/LPS 110,061)", "value": "64,481"}, {"measurement": "% Inhibition of MPO", "setting": "[2]", "value": 67.2, "unit": "%"}, {"measurement": "% Inhibition of neutrophil migration", "setting": "[2]", "value": 41.4, "unit": "%"}, {"measurement": "Diminished IL-6 levels (inhibition) vs. PBS control", "setting": "[3]; after ozone exposure", "value": "approximately 85%"}, {"measurement": "Effect on interferon-γ levels", "setting": "[3]; after ozone exposure", "value": "little effect"}, {"measurement": "Reduced neutrophil cell infiltration in the BAL fluid vs. PBS control", "setting": "[3]; after ozone exposure", "value": "93%±5%"}, {"measurement": "Diminished IL-6 levels (inhibition) vs. PBS control", "setting": "[3]; after ozone exposure, listed as MANS", "value": "88%±8%"}, {"measurement": "% Neutrophils found in BAL fluid", "setting": "[3]", "value": 1.5, "unit": "%"}, {"measurement": "IFNγ in BAL fluid", "setting": "[3]", "value": "approximately 13 pg/ml"}, {"measurement": "IL-6 in BAL fluid", "setting": "[3]", "value": "approximately 23 pg/ml"}, {"measurement": "KC in BAL fluid", "setting": "[3]", "value": "approximately 60 pg/ml"}, {"measurement": "% Inhibition of neutrophil migration into BAL fluid", "setting": "[3]", "value": 93.0, "unit": "%"}]}, {"smiles": "CCCCCCCCCCCCCC(=O)NCC(=O)N[C@H](C(=O)N[C@@H](C)C(=O)N1CCC[C@H]1C(=O)N[C@@H](C)C(=O)N[C@@H](C)C(=O)N[C@@H](CCC(=O)O)C(=O)NCC(=O)N[C@@H](C)C(=O)NCC(=O)N[C@@H](C)C(=O)N[C@@H](CCC(=O)O)C(=O)N[C@H](C(=O)N[C@@H](CCCCN)C(=O)N[C@@H](CCCNC(=N)N)C(=O)N[C@@H](C)C(=O)N[C@@H](CO)C(=O)N[C@@H](C)C(=O)N[C@@H](CCC(=O)O)C(=O)N[C@@H](C)C(=O)N[C@@H](CCCCN)C(=O)N[C@@H](CCC(N)=O)C(=O)N[C@@H](C)C(=O)N[C@@H](Cc1ccccc1)C(=O)O)C(C)C)[C@@H](C)O", "note": "[RNS peptide, reference compound] (Myristoyl-GTAPAAEGAGAEVKRASAEAKQAF-OH; C-terminus assumed)", "values": [{"measurement": "Basal mucin secretion level relative to control", "setting": "[1]", "value": 90, "unit": "%"}]}, {"smiles": "CCCCCCCCCCCCCC(=O)NCC(=O)N[C@@H](C)C(=O)N[C@@H](CCC(N)=O)C(=O)N[C@@H](Cc1ccccc1)C(=O)N[C@@H](CO)C(=O)N[C@@H](CCCCN)C(=O)N[C@H](C(=O)N[C@@H](C)C(=O)N[C@@H](C)C(=O)N[C@@H](CCCCN)C(=O)O)[C@@H](C)O", "note": "[SEQ ID NO: 15, N-myristoyl-GAQFSKTAAK] (Myristoyl-GAQFSKTAAK-OH; C-terminus assumed)", "values": [{"measurement": "Total Cell Counts", "setting": "[2]; BAL 6 h after LPS, intranasal peptide 30 min before LPS, Table 4 (PBS/LPS 422,300)", "value": "628,075"}, {"measurement": "Hb", "setting": "[2]; Table 4 (PBS/LPS 0.01)", "value": 0.01, "unit": "g/dL"}, {"measurement": "MPO", "setting": "[2]; Table 4 (PBS/LPS 17.33)", "value": 0.79, "unit": "ng/mL"}, {"measurement": "LDH", "setting": "[2]; Table 4 (PBS/LPS 107.80)", "value": 110.75, "unit": "units/L"}, {"measurement": "Total Protein", "setting": "[2]; Table 4 (PBS/LPS 157.40)", "value": 120.25, "unit": "µg/mL"}, {"measurement": "% Neutrophils of total counts", "setting": "[2]; Table 4 (PBS/LPS 28.2)", "value": 6.1, "unit": "%"}, {"measurement": "Total Neutrophil counts", "setting": "[2]; Table 4 (PBS/LPS 119,114)", "value": "38,548"}, {"measurement": "% Inhibition of MPO", "setting": "[2]", "value": 95.4, "unit": "%"}, {"measurement": "% Inhibition of neutrophil migration", "setting": "[2]", "value": 67.6, "unit": "%"}, {"measurement": "Diminished IL-6 levels (inhibition) vs. PBS control", "setting": "[3]; after ozone exposure", "value": "75%±8% and ~75%"}, {"measurement": "Diminished KC concentrations (inhibition) vs. PBS control", "setting": "[3]; after ozone exposure", "value": "38%±5% and ~40%"}, {"measurement": "Effect on interferon-γ levels", "setting": "[3]; after ozone exposure", "value": "little effect"}, {"measurement": "Reduced neutrophil cell infiltration in the BAL fluid vs. PBS control", "setting": "[3]; after ozone exposure", "value": "47.7%±5%"}, {"measurement": "% Neutrophils found in BAL fluid", "setting": "[3]", "value": 11.2, "unit": "%"}, {"measurement": "IFNγ in BAL fluid", "setting": "[3]", "value": "approximately 9 pg/ml"}, {"measurement": "IL-6 in BAL fluid", "setting": "[3]", "value": "approximately 49 pg/ml"}, {"measurement": "KC in BAL fluid", "setting": "[3]", "value": "approximately 147 pg/ml"}, {"measurement": "% Inhibition of neutrophil migration into BAL fluid", "setting": "[3]", "value": 47.7, "unit": "%"}]}]}
